Results from US10202351B2, “Pyrazolyl derivatives as pest control agents” (BAYER ANIMAL HEALTH GMBH, priority 2015, dated 2019).

tested on: Boophilus microplus; assay: Boophilus microplus injection test; assay type: in vivo; details: application rate 20 μg/animal, after 7 days, laying of fertile eggs
Procedure: Solvent: dimethyl sulfoxide […] The animals are transferred into dishes and kept in a climate-controlled room. Efficacy is assessed after 7 days by laying of fertile eggs. Eggs which are not visibly fertile are stored in a climate-controlled cabinet until the larvae hatch after about 42 days.

SMILES	efficacy [%]
Cc1cc(C(F)(C(F)(F)F)C(F)(F)F)cc(C(F)(F)F)c1-n1cc(-c2ccc(F)c(N(C)C(=O)c3ccc(F)nc3)c2)cn1 [Example 48]	100
Cc1ccc(C(=O)Nc2cc(-c3cnn(-c4c(C)cc(C(F)(C(F)(F)F)C(F)(F)F)cc4C(F)(F)F)c3)ccc2F)cc1C [Example 52]	100
Cc1cc(C(=O)Nc2cc(-c3cnn(-c4c(C)cc(C(F)(C(F)(F)F)C(F)(F)F)cc4C(F)(F)F)c3)ccc2F)ccc1F [Example 53]	100
COc1ccc(C(=O)Nc2cc(-c3cnn(-c4c(C)cc(C(F)(C(F)(F)F)C(F)(F)F)cc4C(F)(F)F)c3)ccc2F)cc1F [Example 55]	100
Cc1cc(C(F)(C(F)(F)F)C(F)(F)F)cc(C(F)(F)F)c1-n1cc(-c2ccc(F)c(NC(=O)c3ccc(Cl)c(F)c3)c2)cn1 [Example 56]	100
COc1cc(C(=O)Nc2cccc(-c3cnn(-c4c(C)cc(C(F)(C(F)(F)F)C(F)(F)F)cc4C(F)(F)F)c3)c2F)ccc1F [Example 71]	100
COc1ccc(C(=O)Nc2cccc(-c3cnn(-c4c(C)cc(C(F)(C(F)(F)F)C(F)(F)F)cc4C(F)(F)F)c3)c2F)cc1F [Example 72]	100
COc1cccc(C(=O)Nc2cccc(-c3cnn(-c4c(C)cc(C(F)(C(F)(F)F)C(F)(F)F)cc4C(F)(F)F)c3)c2F)c1 [Example 73]	100
COc1cc(C(=O)Nc2cccc(-c3cnn(-c4c(C)cc(C(F)(C(F)(F)F)C(F)(F)F)cc4C(F)(F)F)c3)c2F)ccc1C#N [Example 74]	100
Cc1cc(C(F)(C(F)(F)F)C(F)(F)F)cc(C(F)(F)F)c1-n1cc(-c2cccc(NC(=O)c3ccsc3)c2F)cn1 [Example 75]	100
Cc1cc(C(F)(C(F)(F)F)C(F)(F)F)cc(C(F)(F)F)c1-n1cc(-c2cccc(NC(=O)c3cccs3)c2F)cn1 [Example 76]	100

tested on: Musca domestica; assay: Musca domestica test; assay type: in vivo; details: application rate 100 ppm, adult houseflies, kill after 2 days
Procedure: (§1) Solvent: dimethyl sulfoxide
(§2) To produce a suitable preparation of active compound, 10 mg of active compound are mixed with 0.5 ml of dimethyl sulfoxide, and the concentrate is diluted with water to the desired concentration.
Vessels containing a sponge treated with sugar solution and the active ingredient formulation of the desired concentration are populated with 10 adult houseflies (Musca domestica)).
After 2 days, the kill in % is determined. 100% means that all of the flies have been killed; 0% means that none of the flies have been killed.

SMILES	efficacy [%]
Cc1cc(C(F)(C(F)(F)F)C(F)(F)F)cc(C(F)(F)F)c1-n1cc(-c2ccc(F)c(N(C)C(=O)c3ccc(F)nc3)c2)cn1 [Example 48]	100
Cc1cc(C(F)(C(F)(F)F)C(F)(F)F)cc(C(F)(F)F)c1-n1cc(-c2ccc(F)c(NC(=O)c3ccc(Cl)nc3)c2)cn1 [Example 49]	100
Cc1ccc(C(=O)Nc2cc(-c3cnn(-c4c(C)cc(C(F)(C(F)(F)F)C(F)(F)F)cc4C(F)(F)F)c3)ccc2F)cc1C [Example 52]	100
Cc1cc(C(=O)Nc2cc(-c3cnn(-c4c(C)cc(C(F)(C(F)(F)F)C(F)(F)F)cc4C(F)(F)F)c3)ccc2F)ccc1F [Example 53]	100

tested on: Phaedon cochleariae; assay: Phaedon cochleariae spray test; assay type: in vivo; details: application rate 100 g/ha, larvae on Chinese cabbage leaf discs, after 7 days
Procedure: (§3) Solvent: 78.0 parts by weight of acetone • • 1.5 parts by weight of dimethylformamide Emulsifier: alkylaryl polyglycol ether […] To produce further test concentrations, the formulation is diluted with emulsifier-containing water. Discs of Chinese cabbage leaves (Brassica pekinensis) are sprayed with an active ingredient formulation of the desired concentration and, after drying, populated with larvae of the mustard beetle (Phaedon cochleariae).

SMILES	efficacy [%]
Cc1ncc(-c2cnn(-c3c(Cl)cc(C(F)(C(F)(F)F)C(F)(F)F)cc3Cl)c2)cc1NC(=O)c1ccncc1 [Example 18]	83
COc1cc(C(=O)Nc2cc(-c3cnn(-c4c(C)cc(C(F)(C(F)(F)F)C(F)(F)F)cc4C(F)(F)F)c3)ccc2F)ccc1F [Example 28]	100
COc1cc(C(=O)Nc2cc(-c3cnn(-c4c(C)cc(C(F)(C(F)(F)F)C(F)(F)F)cc4C(F)(F)F)c3)ccc2F)ccc1C#N [Example 35]	100
Cc1cc(C(F)(C(F)(F)F)C(F)(F)F)cc(C(F)(F)F)c1-n1cc(-c2ccc(F)c(N(C)C(=O)c3ccc(F)nc3)c2)cn1 [Example 48]	100
Cc1cc(C(F)(C(F)(F)F)C(F)(F)F)cc(C(F)(F)F)c1-n1cc(-c2ccc(F)c(NC(=O)c3ccc(Cl)nc3)c2)cn1 [Example 49]	100
COc1ccc(C(=O)Nc2cc(-c3cnn(-c4c(C)cc(C(F)(C(F)(F)F)C(F)(F)F)cc4C(F)(F)F)c3)ccc2F)cc1F [Example 55]	100
COc1cc(C(=O)Nc2cccc(-c3cnn(-c4c(C)cc(C(F)(C(F)(F)F)C(F)(F)F)cc4C(F)(F)F)c3)c2F)ccc1F [Example 71]	100
COc1ccc(C(=O)Nc2cccc(-c3cnn(-c4c(C)cc(C(F)(C(F)(F)F)C(F)(F)F)cc4C(F)(F)F)c3)c2F)cc1F [Example 72]	100
COc1cccc(C(=O)Nc2cccc(-c3cnn(-c4c(C)cc(C(F)(C(F)(F)F)C(F)(F)F)cc4C(F)(F)F)c3)c2F)c1 [Example 73]	100
COc1cc(C(=O)Nc2cccc(-c3cnn(-c4c(C)cc(C(F)(C(F)(F)F)C(F)(F)F)cc4C(F)(F)F)c3)c2F)ccc1C#N [Example 74]	100
Cc1cc(C(F)(C(F)(F)F)C(F)(F)F)cc(C(F)(F)F)c1-n1cc(-c2cccc(NC(=O)c3cccs3)c2F)cn1 [Example 76]	100

tested on: Ctenocephalides felis; assay: Ctenocephalides felis oral test; assay type: in vivo; details: application rate 100 ppm in citrated cattle blood, kill after 2 days
Text: Solvent: dimethyl sulfoxide […] Dilution with citrated cattle blood gives the desired concentration. About 20 unfed adult cat fleas (Ctenocephalides felis) are placed into a chamber which is closed at the top and bottom with gauze. A metal cylinder whose bottom end is closed with parafilm is placed onto the chamber. The cylinder contains the blood/active ingredient formulation, which can be imbibed by the fleas through the parafilm membrane.

SMILES	efficacy [%]
Cc1cc(C(F)(C(F)(F)F)C(F)(F)F)cc(C(F)(F)F)c1-n1cc(-c2ccc(F)c(N(C)C(=O)c3ccc(F)nc3)c2)cn1 [Example 48]	100
Cc1cc(C(F)(C(F)(F)F)C(F)(F)F)cc(C(F)(F)F)c1-n1cc(-c2ccc(F)c(NC(=O)c3ccc(Cl)nc3)c2)cn1 [Example 49]	100
Cc1cc(C(=O)Nc2cc(-c3cnn(-c4c(C)cc(C(F)(C(F)(F)F)C(F)(F)F)cc4C(F)(F)F)c3)ccc2F)ccc1F [Example 53]	100
COc1ccc(C(=O)Nc2cc(-c3cnn(-c4c(C)cc(C(F)(C(F)(F)F)C(F)(F)F)cc4C(F)(F)F)c3)ccc2F)cc1F [Example 55]	100
Cc1cc(C(F)(C(F)(F)F)C(F)(F)F)cc(C(F)(F)F)c1-n1cc(-c2ccc(F)c(NC(=O)c3ccc(Cl)c(F)c3)c2)cn1 [Example 56]	100
COc1cc(C(=O)Nc2cccc(-c3cnn(-c4c(C)cc(C(F)(C(F)(F)F)C(F)(F)F)cc4C(F)(F)F)c3)c2F)ccc1F [Example 71]	100
COc1ccc(C(=O)Nc2cccc(-c3cnn(-c4c(C)cc(C(F)(C(F)(F)F)C(F)(F)F)cc4C(F)(F)F)c3)c2F)cc1F [Example 72]	95
COc1cccc(C(=O)Nc2cccc(-c3cnn(-c4c(C)cc(C(F)(C(F)(F)F)C(F)(F)F)cc4C(F)(F)F)c3)c2F)c1 [Example 73]	100
Cc1cc(C(F)(C(F)(F)F)C(F)(F)F)cc(C(F)(F)F)c1-n1cc(-c2cccc(NC(=O)c3ccsc3)c2F)cn1 [Example 75]	95
Cc1cc(C(F)(C(F)(F)F)C(F)(F)F)cc(C(F)(F)F)c1-n1cc(-c2cccc(NC(=O)c3cccs3)c2F)cn1 [Example 76]	100

tested on: Spodoptera frugiperda; assay: Spodoptera frugiperda spray test; assay type: in vivo; details: application rate 100 g/ha, caterpillars on maize leaf discs, after 7 days
Procedure: as §3, with “Leaf discs” for “Discs”, “maize (Zea mays)” for “Chinese cabbage leaves (Brassica pekinensis)”, “compound” for “ingredient”, “caterpillars” for “larvae”, “armyworm (Spodoptera frugiperda).” for “mustard beetle (Phaedon cochleariae).”

SMILES	efficacy [%]
Cc1ncc(-c2cnn(-c3c(Cl)cc(C(F)(C(F)(F)F)C(F)(F)F)cc3Cl)c2)cc1NC(=O)c1ccncc1 [Example 18]	100
COc1cc(C(=O)Nc2cc(-c3cnn(-c4c(C)cc(C(F)(C(F)(F)F)C(F)(F)F)cc4C(F)(F)F)c3)ccc2F)ccc1C#N [Example 35]	100
Cc1cc(C(F)(C(F)(F)F)C(F)(F)F)cc(C(F)(F)F)c1-n1cc(-c2ccc(F)c(N(C)C(=O)c3ccc(F)nc3)c2)cn1 [Example 48]	100
Cc1cc(C(F)(C(F)(F)F)C(F)(F)F)cc(C(F)(F)F)c1-n1cc(-c2ccc(F)c(NC(=O)c3ccc(Cl)nc3)c2)cn1 [Example 49]	100
COc1cc(C(=O)Nc2cccc(-c3cnn(-c4c(C)cc(C(F)(C(F)(F)F)C(F)(F)F)cc4C(F)(F)F)c3)c2F)ccc1F [Example 71]	100
COc1cccc(C(=O)Nc2cccc(-c3cnn(-c4c(C)cc(C(F)(C(F)(F)F)C(F)(F)F)cc4C(F)(F)F)c3)c2F)c1 [Example 73]	100
COc1cc(C(=O)Nc2cccc(-c3cnn(-c4c(C)cc(C(F)(C(F)(F)F)C(F)(F)F)cc4C(F)(F)F)c3)c2F)ccc1C#N [Example 74]	100
Cc1cc(C(F)(C(F)(F)F)C(F)(F)F)cc(C(F)(F)F)c1-n1cc(-c2cccc(NC(=O)c3cccs3)c2F)cn1 [Example 76]	100

tested on: Lucilia cuprina; assay: Lucilia cuprina test; assay type: in vivo; details: application rate 100 ppm, L1 larvae, kill after 2 days
Procedure: as §1, §2
About 20 L1 larvae of the Australian sheep blowfly (Lucilia cuprina) are transferred into a test vessel containing minced horsemeat and the active compound formulation of the desired concentration.
After 2 days, the kill in % is determined. 100% means that all the larvae have been killed; 0% means that no larvae have been killed.

SMILES	efficacy [%]
Cc1cc(C(F)(C(F)(F)F)C(F)(F)F)cc(C(F)(F)F)c1-n1cc(-c2ccc(F)c(N(C)C(=O)c3ccc(F)nc3)c2)cn1 [Example 48]	100
Cc1cc(C(F)(C(F)(F)F)C(F)(F)F)cc(C(F)(F)F)c1-n1cc(-c2ccc(F)c(NC(=O)c3ccc(Cl)nc3)c2)cn1 [Example 49]	100
COc1ccc(C(=O)Nc2cc(-c3cnn(-c4c(C)cc(C(F)(C(F)(F)F)C(F)(F)F)cc4C(F)(F)F)c3)ccc2F)cc1F [Example 55]	80
Cc1cc(C(F)(C(F)(F)F)C(F)(F)F)cc(C(F)(F)F)c1-n1cc(-c2ccc(F)c(NC(=O)c3ccc(Cl)c(F)c3)c2)cn1 [Example 56]	100
COc1ccc(C(=O)Nc2cccc(-c3cnn(-c4c(C)cc(C(F)(C(F)(F)F)C(F)(F)F)cc4C(F)(F)F)c3)c2F)cc1F [Example 72]	100
COc1cccc(C(=O)Nc2cccc(-c3cnn(-c4c(C)cc(C(F)(C(F)(F)F)C(F)(F)F)cc4C(F)(F)F)c3)c2F)c1 [Example 73]	100
COc1cc(C(=O)Nc2cccc(-c3cnn(-c4c(C)cc(C(F)(C(F)(F)F)C(F)(F)F)cc4C(F)(F)F)c3)c2F)ccc1C#N [Example 74]	100
Cc1cc(C(F)(C(F)(F)F)C(F)(F)F)cc(C(F)(F)F)c1-n1cc(-c2cccc(NC(=O)c3ccsc3)c2F)cn1 [Example 75]	80
Cc1cc(C(F)(C(F)(F)F)C(F)(F)F)cc(C(F)(F)F)c1-n1cc(-c2cccc(NC(=O)c3cccs3)c2F)cn1 [Example 76]	100
